From the supplement of paper PMC6045584
± gives the standard deviation of the averaged measurements.

Assays:
VORINOSTAT = compound: O=C(CCCCCCC(=O)Nc1ccccc1)NO [VORINOSTAT]; assay: surviving fraction relative to DMSO-only wells; higher = less growth inhibition; settings: exposure time: 5 days
Method in brief: (§1)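 For each tumour cell line, log-phase cells were put into 384-well plates at 250–500 cells per well, then after 24 hours exposed continuously for five days to inhibitors at 0.5, 1, 5, 10, 50, 100, 500 and 1000 nM. Viability was assessed by CellTiter-Glo luminescence, with surviving fraction expressed relative to the median of DMSO-only wells. Lines were screened three times and retained only if replicate Pearson r exceeded 0.7 and median Z' exceeded 0.3.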

IMATINIB = compound: Cc1ccc(NC(=O)c2ccc(CN3CCN(C)CC3)cc2)cc1Nc1nccc(-c2cccnc2)n1 [IMATINIB]; assay: as above; settings: exposure time: 5 days
Method in brief: as §1

Test System | surviving fraction (VORINOSTAT; 0.5 nM) | surviving fraction (VORINOSTAT; 1 nM) | surviving fraction (VORINOSTAT; 5 nM) | surviving fraction (VORINOSTAT; 10 nM) | surviving fraction (VORINOSTAT; 50 nM) | surviving fraction (VORINOSTAT; 100 nM) | surviving fraction (VORINOSTAT; 500 nM) | surviving fraction (VORINOSTAT; 1000 nM) | surviving fraction (IMATINIB; 0.5 nM) | surviving fraction (IMATINIB; 1 nM) | surviving fraction (IMATINIB; 5 nM) | surviving fraction (IMATINIB; 10 nM) | surviving fraction (IMATINIB; 50 nM) | surviving fraction (IMATINIB; 100 nM) | surviving fraction (IMATINIB; 500 nM) | surviving fraction (IMATINIB; 1000 nM)
NY BONE | 0.9877 ± 0.004 | 0.918 ± 0.029 | 0.973 ± 0.023 | 0.98 ± 0.033 | 1.037 ± 0.0042 | 0.916 ± 0.019 | 0.701 ± 0.012 | 0.448 ± 0.016 | 1.08 ± 0.021 | 1.08 ± 0.022 | 1.12 ± 0.051 | 1.1 ± 0.013 | 1.107 ± 0.0076 | 1.11 ± 0.025 | 1.04 ± 0.043 | 1.03 ± 0.019
OS25HAL BONE | 0.987 ± 0.014 | 0.962 ± 0.015 | 0.991 ± 0.015 | 0.943 ± 0.033 | 1.046 ± 0.0047 | 1.03 ± 0.031 | 0.91 ± 0.011 | 0.498 ± 0.018 | 1.08 ± 0.041 | 1.04 ± 0.035 | 1.03 ± 0.021 | 1.06 ± 0.027 | 1.08 ± 0.013 | 1.1 ± 0.017 | – | –
OSHN BONE | 1.05 ± 0.026 | 1.04 ± 0.019 | 1.05 ± 0.022 | 1.028 ± 0.0032 | 1.08 ± 0.042 | 1.08 ± 0.032 | 1.1 ± 0.022 | 0.903 ± 0.022 | 1.13 ± 0.024 | 1.126 ± 0.0095 | 1.1 ± 0.033 | 1.12 ± 0.012 | 1.16 ± 0.013 | 1.14 ± 0.017 | – | 1.1 ± 0.051
PCI30 HEADNECK | 0.958 ± 0.064 | 0.982 ± 0.079 | 0.933 ± 0.087 | 1.01 ± 0.039 | 1.07 ± 0.053 | 0.962 ± 0.066 | 0.88 ± 0.064 | 0.735 ± 0.059 | – | 0.943 ± 0.017 | – | 1.08 ± 0.11 | 1.13 ± 0.042 | 1.13 ± 0.024 | 1.06 ± 0.067 | 0.981 ± 0.038
